Legend:
[1] = system: E. coli strains; assay: Growth inhibition of E. coli strains grown in the presence of 3-HP; format: cell-based; details: levels as low as
[2] = target: E. coli ACCase (Escherichia coli, UniProt P0A9Q5+P0ABD5+P0ABD8+P24182); details: FIG. 4; for decrease of the activity of the ACCase enzyme relative to control: salts of 3-HP levels near 0.66M; for decrease of the activity of the ACCase enzyme: salt levels near 0.44M
Description: Levels of greater than 0.66M (60 g/L) are expected to be present for commercially viable commercial production of 3-HP.
Each gene was amplified by PCRs with Pfu Ultra II HS using the manufacturer's instructions, and the PCR products were purified using the Zymo PCR Cleanup kit. Concentrations of products were measured using the Nanodrop spectophotometer. The Gibson Assembly kit (NEB) was used to construct plasmids expressing the ACCase subunit genes as directed by the manufacturer. The effect of NH4-3-HP and NH4Cl on H. elongata ACCase was tested and compared to the E. coli ACCase.

[3] = system: H. elongata ACCase; assay: Salt inhibition of ACCase enzyme activity (H. elongata ACCase); format: biochemical, Halomonas elongata; details: FIG. 4
Description: Concentrations of products were measured using the Nanodrop spectophotometer.

[4] = system: 3-HP production; assay: 1 L fermentation, 3HP titer with overexpression of rhtA exporter; format: cell-based, E. coli; details: control plasmid without rhtA, FIG. 7
Description: A known chemical exporter from E. coli that has been previously characterized for homoserine transport, rhtA, was evaluated for increased production of 3-HP. A mutant version of the exporter, rhtA(P2S) (SEQ ID NO. 30 nucleic acid, SEQ ID NO. 31 protein) was synthesized behind the PtpiA promoter and inserted into the pTRC-PyibD-MCR plasmid behind a terminator using the Gibson Assembly kit (NEB) according to manufacturer's instructions. The effects of overexpression of rhtA were evaluated in 1 L fermentation compared to the control plasmid without rhtA. […] Construction of plasmids expressing another putative transporter, ydcO (SEQ ID NO. 32 nucleic acid, SEQ ID NO. 33 protein) is carried out in the same manner.

E. coli ACCase, sequence (P0A9Q5 whole entry): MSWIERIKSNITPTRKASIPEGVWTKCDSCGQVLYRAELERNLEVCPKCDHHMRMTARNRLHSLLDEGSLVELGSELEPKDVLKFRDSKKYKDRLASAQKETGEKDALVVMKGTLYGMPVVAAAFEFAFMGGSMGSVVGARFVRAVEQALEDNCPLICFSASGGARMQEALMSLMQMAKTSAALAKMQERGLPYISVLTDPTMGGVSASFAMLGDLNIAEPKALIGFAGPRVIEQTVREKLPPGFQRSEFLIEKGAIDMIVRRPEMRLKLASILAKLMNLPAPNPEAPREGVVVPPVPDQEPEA
E. coli ACCase, sequence (P0ABD5 whole entry): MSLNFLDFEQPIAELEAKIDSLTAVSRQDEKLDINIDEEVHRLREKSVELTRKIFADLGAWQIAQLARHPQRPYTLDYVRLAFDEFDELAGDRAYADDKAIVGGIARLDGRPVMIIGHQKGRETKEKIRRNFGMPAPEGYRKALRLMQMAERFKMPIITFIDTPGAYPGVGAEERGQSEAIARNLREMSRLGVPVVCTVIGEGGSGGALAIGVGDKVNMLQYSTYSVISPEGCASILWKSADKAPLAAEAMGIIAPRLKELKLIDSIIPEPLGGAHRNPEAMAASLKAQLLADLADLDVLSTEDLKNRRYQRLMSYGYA

O=C(O)CCO [3-HP, 3-hydroxypropionic acid]
3-HP level at which growth inhibition is demonstrated [1]: 20 g/L

N.O=C(O)CCO [NH4-3-HP]
effect of salt on E. coli ACCase [2]: significantly inhibited
decrease of the activity of the ACCase enzyme relative to control [2]: approximately 80%
effect of salt on H. elongata ACCase compared to the E. coli ACCase [3]: less affected

Cl.N [NH4Cl]
effect of salt on E. coli ACCase [2]: significantly inhibited
decrease of the activity of the ACCase enzyme [2]: approximately 80%
effect of salt on H. elongata ACCase compared to the E. coli ACCase [3]: less affected

O=C([O-])CCO.[Na+] [Na-3-HP]
decrease of the activity of the ACCase enzyme relative to control [2]: approximately 80%

[Cl-].[Na+] [NaCl]
decrease of the activity of the ACCase enzyme [2]: approximately 80%

B1: rhtA: chemical exporter from E. coli characterized for homoserine transport; mutant version rhtA(P2S) overexpressed (protein)
chain: MSGSLRKMPVWLPIVILLVAMASIQGGASLAKSLFPLVGAPGVTALRLALGTLILIAFFKPWRLRFAKEQRLPLLFYGVSLGGMNYLFYLSIQTVPLGIAVALEFTGPLAVALFSSRRPVDFVWVVLAVLGLWFLLPLGQDVSHVDLTGCALALGAGACWAIYILSGQRAGAEHGPATVAIGSLIAALIFVPIGALQAGEALWHWSVIPLGLAVAILSTALPYSLEMIALTRLPTRTFGTLMSMEPALAAVSGMIFLGETLTPIQLLALGAIIAASMGSTLTVRKESKIKELDIN
3HP titer compared to the control production strain [4]: significant improvement

Source: US20150064754A1, “BIOPRODUCTION OF CHEMICALS” (OPX Biotechnologies, Inc., priority 2013, published 2015)
